Assays:
[1] = Kinetic solubility assay; type: physicochemical; conditions: kinetic solubility, 50 mM PB (pH 7.4), shaken 24 hours at RT
Protocol: 10 μL of 10 mM in DMSO of test article and control compounds was added into lower chambers of whatman miniuniprep vials, respectively. 490 μL of 50 mM PB (pH 7.4) was then added into lower chambers of the whatman miniuniprep vials, respectively. […] Miniuniprep vials were shaken for 24 hours at RT at the speed of 800 rpm, centrifuged 20 minutes (eg. 4000 rpm) and the filtrates were analyzed by UPLC-UV/HPLC-UV system to calculate the concentration with standard curve.
Filter Membrane: Miniuniprep (PTFE Filter Media with Polypropylene Housing) Cat. No. UN203NPUORG, GE Halthcare Whatman.

[2] = target: T1, wtKIT (Homo sapiens, UniProt P10721); experiment: Caliper biochemical assay, wtKIT; conditions: Table 6, read-out: KIT Biochemical IC50 avg
T1 construct: 1888289AM in the reaction mixtures
Protocol: Enzyme, substrate, and cofactors (ATP and Mn^2+) are combined in a well of a microtiter plate and incubated for 3 hours at 25° C. At the end of the incubation, the reaction is quenched by the addition of an EDTA-containing buffer. Substrate and product are separated electrophoretically using the microfluidic-based LabChip 3000 Drug Discovery System from Caliper Life Sciences* and quantitated by fluorescence intensity.
The substrate used in the CSF-1R and PDGFRα assay is FAM-[…]-CONH2 (FAM is carboxyfluorescein). Peptide should be >95% purity. The substrate for the KIT assay is FAM-[…]-NH2.
• 1. To a well of a 384-well plate add 5 μL of 2× enzyme buffer (or control) • 2. Add 100 nL of 100× compound. • 3. Add 5 μL of 2× substrate buffer. • 4. Incubate plate at 25° C. for 3 hours. • 5. Add 10 uL of […]. • 6. Read plate LabChip 3000 Drug Discovery System
• 3 hours at 25° C. where 100% Inhibitor: No enzyme.
• 100 mM HEPES, pH 7.5 0.1% BSA • 0.01% Triton X-100 • 1 mM DTT • 10 mM MnCl2 • 10 μM Sodium Orthovanadate • 10 μM Beta-Glycerophosphate • 400 μM ATP • 1% DMSO (from compound) • 1 μM FAM-[…]-CONH2 5.0 nM wtKIT Enzyme (1888289AM)* • *Specific activity may vary from lot to lot. Enzyme concentration may need to be adjusted to yield 10-20% conversion of substrate to product.

[3] = target: T1, wtKIT; experiment: HTRF biochemical assay, wtKIT (phosphorylation of a peptide substrate); conditions: Table 4
Summary of the method: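 HTRF read-out of FAM-peptide (1 µM) phosphorylation after anti-phosphotyrosine antibody addition and EDTA quench. Reaction: 5.0 nM wtKIT, 400 µM ATP, 10 mM Mn2+, HEPES pH 7.5, 1% DMSO, 3 h, 25 °C; optional enzyme-compound preincubation; enzyme level set for 10-20% conversion.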

T1 sequence (P10721 26-976): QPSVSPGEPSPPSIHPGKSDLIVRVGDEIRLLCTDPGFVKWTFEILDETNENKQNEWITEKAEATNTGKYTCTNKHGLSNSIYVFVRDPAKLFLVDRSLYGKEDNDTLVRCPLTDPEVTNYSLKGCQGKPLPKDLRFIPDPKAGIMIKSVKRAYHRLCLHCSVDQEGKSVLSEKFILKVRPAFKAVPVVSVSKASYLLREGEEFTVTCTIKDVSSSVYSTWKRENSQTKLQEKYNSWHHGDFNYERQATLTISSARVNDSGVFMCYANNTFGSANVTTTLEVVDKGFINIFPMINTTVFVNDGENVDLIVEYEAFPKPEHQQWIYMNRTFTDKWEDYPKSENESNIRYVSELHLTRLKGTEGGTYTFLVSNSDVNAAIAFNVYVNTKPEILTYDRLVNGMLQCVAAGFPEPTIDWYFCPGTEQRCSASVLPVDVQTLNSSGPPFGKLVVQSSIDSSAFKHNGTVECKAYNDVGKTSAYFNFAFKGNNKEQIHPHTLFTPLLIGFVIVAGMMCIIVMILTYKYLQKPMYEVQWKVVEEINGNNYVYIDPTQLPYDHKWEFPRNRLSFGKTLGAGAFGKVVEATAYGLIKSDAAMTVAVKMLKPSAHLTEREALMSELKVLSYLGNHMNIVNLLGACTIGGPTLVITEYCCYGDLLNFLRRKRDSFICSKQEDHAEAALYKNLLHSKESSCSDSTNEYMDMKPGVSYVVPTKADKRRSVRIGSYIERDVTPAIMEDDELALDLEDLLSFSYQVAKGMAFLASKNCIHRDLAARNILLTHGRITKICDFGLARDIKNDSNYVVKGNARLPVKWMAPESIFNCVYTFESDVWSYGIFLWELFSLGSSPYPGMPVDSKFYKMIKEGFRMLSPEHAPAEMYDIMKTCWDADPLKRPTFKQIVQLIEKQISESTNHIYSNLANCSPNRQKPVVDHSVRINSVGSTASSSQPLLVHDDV

Structure (SMILES)	Solubility (μM) [1]	IC50 [2]	IC50 [3]
Cc1ccc(-c2noc(C3(C)CCCC3(F)F)n2)cc1NC(=O)c1cnc2ccccn12 (racemic) [Compound I-374]	**** (a solubility less than or equal to 2 μM)	≤ 50 nM	–
COC(=O)N1CC(c2nc(-c3ccc(C)c(NC(=O)c4cnc5ccc(OC[C@@H](C)O)cn45)c3)no2)C1 [Compound I-227]	** (a solubility greater than 10 μM and less than or equal to 50 μM)	≤ 50 nM	50 to 500 nM
Cc1ccc(-c2noc([C@H]3C[C@@H]3F)n2)cc1NC(=O)c1cnc2cc(C(N)=O)ccn12 [Compound I-207]	**** (a solubility less than or equal to 2 μM)	≤ 50 nM	≤ 50 nM
Cc1cc(C)cc(Nc2ccn3c(C(=O)Nc4cc(-c5noc([C@H]6C[C@@H]6F)n5)ccc4C)cnc3c2)c1 [Compound I-292]	*** (a solubility greater than 2 μM and less than or equal to 10 μM)	≤ 50 nM	–
Cc1ccc(-c2noc([C@H]3CCN3S(=O)(=O)c3cccnc3)n2)cc1NC(=O)c1cnc2ccccn12 [Compound I-233]	** (a solubility greater than 10 μM and less than or equal to 50 μM)	50 to 500 nM	50 to 500 nM
Cc1ccc(-c2noc([C@H]3C[C@@H]3F)n2)cc1NC(=O)c1cnc2ccc(Nc3ccc4c(c3)OCCO4)cn12 [Compound I-290]	*** (a solubility greater than 2 μM and less than or equal to 10 μM)	≤ 50 nM	–
Cc1ccc(-c2noc([C@H]3CC(=O)CN3)n2)cc1NC(=O)c1cnc2ccccn12 [Compound I-223]	–	≤ 50 nM	50 to 500 nM
Cc1ccc(-c2noc([C@H]3CCN3)n2)cc1NC(=O)c1cnc2cc(C#N)ccn12 [Compound I-244]	* (a solubility greater than 50 μM)	50 to 500 nM	50 to 500 nM
Cc1ccc(-c2noc(C3C(C)CC3C)n2)cc1NC(=O)c1cnc2ccccn12 (centres unmarked) [Compound I-315]	**** (a solubility less than or equal to 2 μM)	≤ 50 nM	–
Cc1nc(-c2ccc(C)c(NC(=O)c3cnc4ccc(N5CCOCC5)cn34)c2)no1 [Compound I-218]	**** (a solubility less than or equal to 2 μM)	≤ 50 nM	≤ 50 nM
CC(C)(C)OC(=O)N1CC(c2nc(-c3ccc(Cl)c(NC(=O)c4cnc5ccccn45)c3)no2)C1 [Compound I-333]	**** (a solubility less than or equal to 2 μM)	≤ 50 nM	–
COC(=O)N1CC(c2nc(-c3ccc(C)c(NC(=O)c4cnc5ccc(OCCO)cn45)c3)no2)C1 [Compound I-247]	*** (a solubility greater than 2 μM and less than or equal to 10 μM)	≤ 50 nM	50 to 500 nM
Cc1nc(-c2ccc(C)c(NC(=O)c3cnc4ccc(N5CCCCC5)cn34)c2)no1 [Compound I-206]	**** (a solubility less than or equal to 2 μM)	≤ 50 nM	≤ 50 nM
COc1ccc(Nc2ccn3c(C(=O)Nc4cc(-c5noc([C@H]6C[C@@H]6F)n5)ccc4C)cnc3c2)cc1OC [Compound I-285]	**** (a solubility less than or equal to 2 μM)	≤ 50 nM	–
Cc1ccc(-c2noc([C@H]3C[C@@H]3F)n2)cc1NC(=O)c1cnc2cc(N3CCC(C)CC3)ccn12 [Compound I-303]	**** (a solubility less than or equal to 2 μM)	≤ 50 nM	–
COC(=O)N1CC(c2nc(-c3ccc(C)c(NC(=O)c4cnc5ccc(OCC(C)(C)O)cn45)c3)no2)C1 [Compound I-239]	** (a solubility greater than 10 μM and less than or equal to 50 μM)	50 to 500 nM	50 to 500 nM
Cc1ccc(-c2noc([C@H]3C[C@@H]3F)n2)cc1NC(=O)c1cnc2ccc(Cl)nn12 [Compound I-289]	*** (a solubility greater than 2 μM and less than or equal to 10 μM)	50 to 500 nM	–
Cc1ccc(-c2noc(C3CC3F)n2)cc1NC(=O)c1cnc2ccc(Nc3ccc(OC(F)F)cc3)cn12 (centres unmarked) [Compound I-284]	*** (a solubility greater than 2 μM and less than or equal to 10 μM)	≤ 50 nM	–
CCNc1ccn2c(C(=O)Nc3cc(-c4noc(C)n4)ccc3C)cnc2c1 [Compound I-229]	**** (a solubility less than or equal to 2 μM)	≤ 50 nM	≤ 50 nM
Cc1ccc(-c2noc([C@H]3C[C@@H]3F)n2)cc1NC(=O)c1cnc2cc(NS(=O)(=O)c3c(C)noc3C)ccn12 [Compound I-226]	* (a solubility greater than 50 μM)	50 to 500 nM	50 to 500 nM
Cc1ccc(-c2noc([C@@H]3CC(=O)N3)n2)cc1NC(=O)c1cnc2ccccn12 (racemic) [Compound I-224]	* (a solubility greater than 50 μM)	≤ 50 nM	50 to 500 nM

Reference: patent publication US20240254119A1 (THIRD HARMONIC BIO, INC., priority 2022, published 2024)
